Measured values as given in patent US20250009763A1, “METHODS FOR EXTENDING LIFESPAN AND/OR DELAYING AGING” (priority 2023, published 2025).

What was measured:
aged C57BL/6J mice [1] = assay: Rearing behavior; type: in vivo, mouse; settings: long-term (111 weeks of age), old-aged mice; FIG. 4D
Procedure: The rearing behavior of the male C57BL/6J mice fed a standard rodent chow with or without 50 mg/kg PN6 for 22 weeks (at 72 weeks of age; mid-term) or for 61 weeks (at 111 weeks of age; long-term) was analyzed using the OxyletPro System, in which the mice were housed individually in metabolic cages that were equipped with infrared light beam frames surrounding them. Mid-term: SD, n=16; PN6, n=8; long-term: SD, n=12; PN6, n=8.

aged C57BL/6J mice [2] = assay: Intraperitoneal insulin tolerance test (IpITT); type: in vivo, mouse; settings: 107 weeks of age, versus SD; FIGS. 4J-4K
Procedure: The male C57BL/6J mice, aged 107 weeks, were fasted for […] while having free access to water, and their body weights were measured before the test started. The test was conducted by fasting the mice for 5 hours, and then injecting them with 1.25 U/kg of human recombinant insulin. Blood droplets were collected from the tail vein just prior to the insulin injection (time 0; baseline), and at 15, 30, 60, and 90 minutes following the injection. Blood glucose levels were measured using a blood glucose meter (Accu-Chek Guide; Roche, DE).

[3] = test system: intracellular NAD^+ of WT yeast cells (BY4741); assay: Intracellular NAD^+ content; type: cell-based, Saccharomyces cerevisiae; settings: 25 μM, 2 hours; FIG. 2B
Procedure: WT yeast cells (BY4741; […] per group) were incubated in the presence of DMSO (control) or PN6 (25 μM), or cultured in YEPD medium adjusted to CR 0.1%, for 2 hours, before being harvested. The harvested cells were extracted with 250 μl of 1 M glacial formic acid saturated with butanol, incubated for 30 minutes on ice. Then, 62.5 μl of 100% trichloroacetic acid (TCA) (w/v) was added to each sample, and the samples were incubated on ice for an additional 15 minutes. The samples were pelleted by centrifugation at 17,000×g and 4° C. for 5 minutes, and the supernatant was transferred to another eppendorf tube. […]
For analysis, each supernatant or standard sample was divided into two sets: the control set and the test set (150 μl per set), each of which was assembled with an alcohol dehydrogenase (ADH) reaction buffer (345 μl, containing 360 mM Tris (pH 9.7), 240 mM lysine, 0.24% (v/v) EtOH). […] After incubation at room temperature for 10 minutes, the absorbance at 340 nm of each sample was measured by a microplate reader. To determine the NAD^+ levels in each supernatant or standard sample, the absorbance values of the test set (the ADH catalytic set) were divided by the corresponding values of the control set (the water set), which represented the basal NADH levels.

aged C57BL/6J mice [4] = assay: Visible changes in appearance of aged mice; type: in vivo, mouse; settings: chow containing 50 mg/kg PN6
Procedure: All animal procedures were conducted under protocols (Protocol #CGU108-134) that complied with relevant regulations and approved by Research Guidelines for the Care and Use of Laboratory Animals, Chang Guan University. Male C57BL/6J male mice (at 34 weeks of age) obtained from National Laboratory Animal Center (NLAC) were maintained at 23±1° C. and at humidity of 45-70% with a 12 hour dark/light cycle (7:00 am/pm lights on/off). After reaching 50 weeks of age, the mice were randomly divided into two groups: Group I (SD), fed a standard rodent chow (n=27); and Group II (PN6), fed a standard rodent chow containing 50 mg/kg PN6 (n=10). Animals had ad libitum access to food and water throughout the study (the mice were sacrificed at 131 weeks of age), during which their body weight and food intake were measured weekly.

SIR2/SIRT1 = target: T1, SIR2/SIRT1 (Homo sapiens, UniProt Q96EB6); assay: SIR2/SIRT1 activity assay (SIRT1 fluorometric drug discovery kit); type: biochemical; settings: SIRT1 activity assay kit; FIG. 2K
T1 construct: purchased Enzo Life Sciences, Inc
T1 sequence (Q96EB6 2-747 limits assumed): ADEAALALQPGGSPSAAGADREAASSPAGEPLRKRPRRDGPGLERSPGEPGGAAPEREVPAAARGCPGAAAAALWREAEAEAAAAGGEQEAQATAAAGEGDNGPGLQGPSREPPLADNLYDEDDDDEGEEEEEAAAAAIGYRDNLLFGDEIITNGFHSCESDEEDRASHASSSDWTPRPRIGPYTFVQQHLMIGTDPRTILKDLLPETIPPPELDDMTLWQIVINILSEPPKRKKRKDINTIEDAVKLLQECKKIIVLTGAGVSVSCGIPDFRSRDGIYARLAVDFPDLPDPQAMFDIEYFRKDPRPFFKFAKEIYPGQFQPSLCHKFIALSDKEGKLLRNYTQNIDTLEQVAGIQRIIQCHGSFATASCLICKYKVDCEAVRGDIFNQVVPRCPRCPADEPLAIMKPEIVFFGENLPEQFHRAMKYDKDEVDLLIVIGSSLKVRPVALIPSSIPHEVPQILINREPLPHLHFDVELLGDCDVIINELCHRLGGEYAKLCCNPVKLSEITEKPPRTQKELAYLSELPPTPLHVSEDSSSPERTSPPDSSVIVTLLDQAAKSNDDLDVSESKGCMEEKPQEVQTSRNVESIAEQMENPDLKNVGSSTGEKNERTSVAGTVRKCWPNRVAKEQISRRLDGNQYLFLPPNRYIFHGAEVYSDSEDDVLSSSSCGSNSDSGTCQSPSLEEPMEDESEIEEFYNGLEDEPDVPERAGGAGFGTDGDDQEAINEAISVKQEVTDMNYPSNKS
Procedure: The activity of SIR2/SIRT1 was assessed using a SIRT1 fluorometric drug discovery kit (Enzo Life Sciences, Inc.), in accordance with the manufacturer's instructions. Fluorescence was excited at 360 nm and emitted at 460 nm.

With CCC(CC[C@@H](C)C1CCC2C3CC(=O)[C@H]4C[C@@H](O)CC[C@]4(C)C3CC[C@@]21C)C(C)C (stereo in doubt) [PN6, (24S)-3β-hydroxy-5α-stigmastan-6-one] the “rearing behavior (exploratory activity)” value (aged C57BL/6J mice [1]) was “increase the exploratory activity”, the insulin sensitivity (aged C57BL/6J mice [2]) was “significantly higher” and the “NAD^+ content of yeast” value [3] was “significantly increased”. It also gave a Hair graying (aged C57BL/6J mice [4]) of 25%, a Kyphosis (aged C57BL/6J mice [4]) of 13% and a Muscle weakness (aged C57BL/6J mice [4]) of 13%. For the same compound, the SIRT1 activity (SIR2/SIRT1) was “directly increase the SIRT1 activity”.
